How the values were obtained:
Type in all cases: in vivo
[1] = tested on: German cockroach 2nd instars (Blattella germanica); experiment: German cockroach 2nd instars, continuous, low-dose ingestion exposure (treated cornmeal); details: for activity relative to hexaflumuron: continuous exposure; for activity relative to hexaflumuron / activities in cockroaches (Compounds 1, 2, and 3 compared): in words; for LC50 (ppm) 21 days / LC50 (ppm) 42 days: continuous ingestion exposure, treated cornmeal; for activities in cockroaches (Compounds 1, 2, and 3 compared): test not specified further, all three compounds were tested only under continuous exposure
Description: German cockroach 2nd instars (Blattella germanica)
Continuous, low-dose ingestion exposure (treated cornmeal)

[2] = tested on: Subterranean Termite (Reticulitermes flavipes); experiment: Subterranean termite, continuous exposure (56 days) to treated paper; details: for LC50 (ppm) 35 days / LC50 (ppm) 56 days: continuous exposure to treated paper; for potency and speed of action relative to hexaflumuron: continuous exposure, in words
Description: (§1) Subterranean Termite (Reticulitermes flavipes)
Continuous exposure (56 days) to treated paper

[3] = tested on: Cat Flea (Ctenocephalides felis); experiment: Cat flea, continuous exposure of larvae to treated media, impact on subsequent adult emergence; details: for efficacy relative to hexaflumuron: cat fleas, in words
Description: Cat Flea (Ctenocephalides felis)
Continuous exposure of larvae to treated media, impact on subsequent adult emergence

Daphnia = experiment: Activity against Daphnia, 48 hr exposure to treated water
[4] = tested on: German cockroach 2nd instars (Blittella germanica); experiment: German cockroach 2nd instars, limited ingestion exposure (48 hr) to treated cornmeal; details: for potency relative to hexaflumuron: limited exposure, at both 21 and 42 days after exposure, in words
Description: German cockroach 2nd instars (Blittella germanica)
Limited ingestion exposure (48 hr) to treated cornmeal

[5] = tested on: Red Imported Fire Ant (RIFA) (Solenopsis inivicta); experiment: Laboratory ant bait study, Red Imported Fire Ant, brood reduction; details: for Time to Achieve 50% Brood Reduction / Time to Achieve 90% Brood Reduction: RIFA, 3-4 day exposure
Method: (§2) Laboratory ant bait studies were carried out with Red Imported Fire Ant (RIFA) (Solenopsis inivicta) and Pharaoh Ant (Monomorium pharionis). Chitin synthesis inhibitors, such as the compounds of the invention, control ants by killing the molting larvae and/or pupae and potentially preventing the hatching of eggs. Because adult workers are not affected, control is measured by effects on the brood. The studies involved 3-4 day exposure to bait. These limited exposure studies more accurately represent real world bait availability than continuous exposure.

[6] = tested on: Pharaoh Ant (Monomorium pharionis); experiment: Laboratory ant bait study, Pharaoh Ant, brood reduction; details: 0.1% in bait, 3-4 day exposure
Method: as §2

[7] = tested on: Subterranean Termite (Reticulitermes flavipes); experiment: Subterranean termite, limited exposure (7 days), mortality at 14, 28, 42 and 56 days; details: high rate, in words
Description: as §1
Limited exposure (7 days) with mortality determined at 14, 28, 42, and 56 days

[8] = continuous exposure of larvae to treated media, subsequent adult emergence
[9] = 0.1% in bait, NA = not achieved
[10] = limited ingestion exposure (48 hr), treated cornmeal

Structure (SMILES) | activity relative to hexaflumuron [1] | LC50 (ppm) 21 days [1] [ppm] | LC50 (ppm) 42 days [1] [ppm] | activities in cockroaches (Compounds 1, 2, and 3 compared) [1] | LC50 (ppm) 35 days [2] [ppm] | LC50 (ppm) 56 days [2] [ppm] | potency and speed of action relative to hexaflumuron [2] | efficacy relative to hexaflumuron [3] | potency relative to hexaflumuron [4] | LC50 (ppm) 42 days [4, 10] | other results
CCN(C(=O)NC(=O)c1c(F)cccc1F)c1cc(Cl)c(OC(F)(F)C(F)C(F)(F)F)c(Cl)c1F (stereo not shown) [Compound 2, N-[3,5-Dichloro-2-fluoro-4-(1,1,2,3,3,3-hexafluoropropoxy)phenyl]-N'-(2,6-difluorobenzoyl)-N-ethylurea] | far more active than hexaflumuron | 0.35 | 0.26 | quite similar | < 0.78 | < 0.78 | more potent and quicker acting than hexaflumuron | far more efficacious than hexaflumuron | more potent than hexaflumuron | – | activity against Daphnia relative to Compound 1 and hexaflumuron (Daphnia; in vivo): much less active against Daphnia than were Compound 1 and hexaflumuron
O=C(NC(=O)c1c(F)cccc1F)Nc1cc(Cl)c(OC(F)(F)C(F)C(F)(F)F)c(Cl)c1F (stereo not shown) [Compound 1, N-[3,5-Dichloro-2-fluoro-4-(1,1,2,3,3,3-hexafluoropropoxy)phenyl]-N'-(2,6-difluorobenzoyl)urea] | far more active than hexaflumuron | < 2.2 | < 0.78 | quite similar | – | < 0.78 | more potent and quicker acting than hexaflumuron | far more efficacious than hexaflumuron | more potent than hexaflumuron | < 9.1 ppm | LC50 (ppm) [3, 8]: 2.8 ppm; LC90 (ppm) [3, 8]: 22 ppm; Time to Achieve 50% Brood Reduction [5, 9]: 2 wks; Time to Achieve 90% Brood Reduction [5, 9]: 3 wks; potency relative to hexaflumuron ([5]; short exposure study with RIFA, in words): significantly more potent than hexaflumuron; Percent brood reduction achieved at end of study ([6]; @ 13 wks): 70%; Time to Achieve 50% Brood Reduction ([6]; NA = not achieved): 4 wks; mortality relative to hexaflumuron [7]: induced more mortality earlier than did hexaflumuron
CCN(C(=O)Nc1cc(Cl)c(OC(F)(F)C(F)C(F)(F)F)c(Cl)c1F)C(=O)c1c(F)cccc1F (stereo not shown) [Compound 3, N-[3,5-Dichloro-2-fluoro-4-(1,1,2,3,3,3-hexafluoropropoxy)phenyl]-N'-(2,6-difluorobenzoyl)-N'-ethyl urea] | far more active than hexaflumuron | 8.0 | 1.5 | quite similar | – | – | – | – | – | – | activity against Daphnia relative to Compound 1 and hexaflumuron (Daphnia; in words): much less active against Daphnia than were Compound 1 and hexaflumuron
O=C(NC(=O)c1c(F)cccc1F)Nc1cc(Cl)c(OC(F)(F)C(F)F)c(Cl)c1 [hexaflumuron, reference compound] | – | > 200 | > 200 | – | > 200 | 1.3 | – | – | – | > 10,000 ppm | Time to Achieve 50% Brood Reduction ([5]; 0.25% in bait): 4 wks; Time to Achieve 90% Brood Reduction ([5]; 0.25% in bait): 10 wks; LC50 (ppm) 21 days ([4]; limited ingestion exposure (48 hr), treated cornmeal, 21 days): > 10,000 ppm
